The record followed here is PMC4635624, “In vitro and in vivo single-agent efficacy of checkpoint kinase inhibition in acute lymphoblastic leukemia” (Journal of Hematology & Oncology, 2015).

For assay [1], the system named is c-Jun in B-/T-ALL cell lines. Put plainly: Western blot against c-Jun. The assay is classed as cell-based, human. The following applies: after treatment; response heterogeneous in T-ALL cell lines. On the procedure:
In order to identify gene expression changes specifically correlated with Chk1 inhibition and to better elucidate the mechanism of action of Chk1 inhibitor, gene expression profiling (GEP) analysis was performed by microarray on treated B/T-ALL cell lines (BV-173, SUP-B15, REH, NALM-6, NALM-19, MOLT-4, RPMI-8402, and CCRF-CEM) and on their untreated counterparts (DMSO 0.1 %) after 24 h of drug exposure. […] To identify peculiar critical pathways affected by Chk1 inhibition, the differentially expressed genes were analyzed in terms of biological function using the MetaCore pathway mapping software (GeneGo Inc.) which categorizes genes in pathway maps, Gene Ontology (GO) cellular processes, and cellular and molecular process networks. […] Finally, the three top scored process networks impaired by the treatment with Chk1 inhibitor were as follows: the DNA damage checkpoint, the S phase of cell cycle, and the apoptosis, confirming the specificity of treatment on its target pathways (Additional file 4). […]
To gain insight into the molecular mechanisms responsible for cell death following treatment, functional analyses by Western blot were performed. […] Finally, all these antibodies were detected using the enhanced chemiluminescence kit ECL (GE) and the compact darkroom ChemiDoc-It (UVP).

Another assay deals with leukemia cell lines. Put plainly: PARP-1 cleavage by Western blot. The assay is classed as cell-based, human. Conditions: 24 h of drug exposure; undetectable with DMSO 0.1 %. On the procedure: In order to assess whether cytotoxicity was correlated to increased susceptibility to apoptosis, B-/T-ALL cell lines were incubated with increasing concentrations of drug (0.1, 0.5, and 1 μM and 0.05, 0.1, and 0.2 μM only for BV-173 and RPMI-8402, respectively) for 24 and 48 h. […] The induction of apoptosis by PF-00477736 was also assessed by the detection of poly (ADP-ribose) polymerase (PARP) cleavage by Western blot analysis.
To gain insight into the molecular mechanisms responsible for cell death following treatment, functional analyses by Western blot were performed. Leukemia cell lines were plated in six-well plates at 500,000 cell/1 ml with increasing concentrations of drug for 24 h and incubated at 37 °C. After the treatment, the cells were collected and lysate using a specific buffer made of KH2PO4 0.1 M (pH 7.5), Igepal 1 % (NP-40), β-glicerofosfato 0.1 mM, and complete protease inhibitor cocktail 1× (Roche Diagnostics). […] Finally, all these antibodies were detected using the enhanced chemiluminescence kit ECL (GE) and the compact darkroom ChemiDoc-It (UVP).
On the technique in general: Immunoblotting shows a protein as a band on a membrane.

The test system of the next assay is NALM-6 cells. Conditions: NALM-6 γ-H2A.X positive cells.
For assay [2], the system named is normal bone marrow mononuclear cells. Put plainly: Viability of primary cultures of normal cells. Format: cell-based, human. Conditions: 24 h of exposure at 100, 500, and 1000 nM. On the procedure:
The efficacy of PF-00477736 was confirmed in primary blast cells from 14 newly diagnosed cases including ten BCR-ABL1-positive (71 %) cases and four BCR-ABL1-negative ALL cases (29 %). Leukemic cells were incubated with increasing concentrations of drug (0.1, 0.5, and 1 μM) for 24 h.
Normal bone marrow progenitors were harvested from bone marrow aspirations performed in lymphoma patients undergoing initial staging procedures, which then resulted negative for lymphoma infiltration. Normal peripheral blood progenitors were harvested from healthy donors.
In order to assess the cell viability after treatment with PF-00477736 (Pfizer), ALL cell lines were seeded in 96-well plates at 50,000 cell/100 μl/well with increasing concentrations of drug (0.005–2 μM) for 24 and 48 h and incubated at 37 °C. Cell viability was assessed by adding WST-1 reagent (Roche Applied Science, Basel, Switzerland) to the culture medium at 1:10 dilution. Cells were incubated at 37 °C, and the optical density was measured by microplate ELISA reader at λ = 450 after 3 h. […] In ex-vivo primary leukemia cells, the effects on cell viability were assessed by counting viable and non-viable cell numbers by the trypan blue dye exclusion method. […] Cellular viability was calculated as a percentage of the viable cells compared to the untreated controls (DMSO 0.1 %).

The test system of assay [3] is Chk1 pathway in normal bone marrow mononuclear cells. As to the kind of experiment: Western blot analysis in normal cells. The assay is classed as cell-based, human. Conditions: in contrast to leukemia cells.

Description for NALM-6 cells: The so-called hyper-γ-H2A.X-positive cells loose the typical foci signal of γ-H2A.X and emit a much higher and diffuse signal of γ-H2A.X positivity.
NALM-6 and BV-173 cells were seeded to poly-D lysine-coated slides, fixed with 4 % PFA (paraformaldehyde), and stained at 37 °C with a mouse anti-H2A.X-Phosphorylated Alexa 647 conjugated antibody (BioLegend). Then, they were treated with DAPI (4.6 diamidino-2-phenylindole; Sigma Aldrich), and the slides were mounted with Mowiol (Calbiochem). Images were acquired with wide field fluorescence microscope Olympus BX61 fully motorized driven by Metamorph software, and the analysis was performed using the freeware ImageJ software.

As to `Cn1cc(-c2[nH]c3cc(NC(=O)[C@H](N)C4CCCCC4)cc4c3c2C=NNC4=O)cn1` [PF-00477736], the c-Jun protein levels result in assay [1] is reported as “c-Jun protein levels increased in all B-ALL cell lines”. Besides, the PARP-1 cleavage entry in the assay with leukemia cell lines is on record as “PARP-1 cleavage band at 89 kDa was observed”. For the same compound, in the assay with NALM-6 cells, the “fold change of mean value intensity of γ-H2A.X, treated vs untreated” value came to 1.4 fold. The cell viability result in assay [2] is on record as “did not reduce viability”. Besides, the “phosphorylation of Chk1 (Ser345), Cdc25c (Ser216), Cdc2 (Tyr 15) and phospho-H2A.X” value in assay [3] is reported as “did not induce protein phosphorylation changes”.
